Results reported in patent US7736537B1, “Replacement solvents having improved properties for refrigeration flushes” (Mainstream Engineering Corp., priority 2008, dated 2010).
Where two headings read alike, the source gives them in different places.

Experiments:
[1] = Description: Parameters such as the lethal dose 50 (LD50), lethal concentration 50 (LC50), cardiac sensitization, skin irritation, and mutagenicity (e.g., via the Ames test) can be used as toxicity metrics. The LDn or LCn abbreviations, where n is the percent lethality, are used for the dose of a toxicant lethal to n % of a test population. […] Cardiac sensitization is a measure of the ability of a compound to cause cardiac arrhythmia under stress.
The property modification components are chosen from a list of potential replacement solvents. These compounds included halogenated compounds such as halogenated acetates, alcohols, alkanes, cycloalkanes, alkenes, cycloalkenes, amines, anhydrides, aromatics, carbonyls, diones, esters, ethers, heterocyclics and ketones.

[2] = Table 1; cited from earlier work
[3] = solubility parameter, Table 1; cited from earlier work
[4] = cardiac sensitization relative to CFC-113

1-bromo-bis(perfluoromethyl)ethylene
CS/CS113 [1, 4]: 42.7 | BP [2]: 45.1 C. | SP [3]: 7.06 (cal/cm^3)^1/2

OC(C(F)(F)F)(C(F)(F)F)C(F)(F)F [1,1,1,3,3,3-hexafluoro-2-(trifluoromethyl)-2-propanol]
CS/CS113 [1, 4]: 61.2 | BP [2]: 46.0 C. | SP [3]: 6.84 (cal/cm^3)^1/2

FC(F)(Br)C=C(C(F)(F)F)C(F)(F)F [1,1,1,4,4-pentafluoro-4-bromo-2-trifluoromethyl-2-butene]
CS/CS113 [1, 4]: 105.5 | BP [2]: 61.0 C. | SP [3]: 6.77 (cal/cm^3)^1/2

O=C(CC(=O)C(F)(F)F)C(F)(F)F [1,1,1,5,5,5-hexafluoro-2,4-pentanedione]
CS/CS113 [1]: 140.5 | BP [2]: 69.9 C. | SP [3]: 6.90 (cal/cm^3)^1/2

O=C(CC(F)(F)F)C(F)(F)Br [1,1,4,4,4-pentafluoro-1-bromo-2-butanone]
CS/CS113 [1, 4]: 17.1 | BP [2]: 89.0 C. | SP [3]: 7.89 (cal/cm^3)^1/2

O=C(CC(F)(F)F)CC(F)(F)Br [1,1,5,5,5-pentafluoro-1-bromo-3-pentanone]
CS/CS113 [1, 4]: 34.2 | BP [2]: 118.4 C. | SP [3]: 7.89 (cal/cm^3)^1/2

FC(F)(F)C(F)(F)C(F)(F)C(F)(F)/C=C\C(F)(F)C(F)(F)C(F)(F)C(F)(F)F [1,2-(Z)-bis(perfluoro-n-butyl)ethylene]
CS/CS113 [1, 4]: 1188.5 | BP [2]: 132.0 C. | SP [3]: 6.81 (cal/cm^3)^1/2

FC1(F)C(Cl)=C(Cl)C(F)(F)C(F)(F)C1(F)F [1,2-dichloro-3,3,4,4,5,5,6,6-octafluoro-cyclohexene]
CS/CS113 [1, 4]: 15.5 | BP [2]: 123.8 C. | SP [3]: 7.55 (cal/cm^3)^1/2

FC1(F)C(Cl)=C(Cl)C(F)(F)C1(F)F [1,2-dichloro-hexafluoro-cyclopentene]
CS/CS113 [1, 4]: 9.9 | BP [2]: 90.0 C. | SP [3]: 7.90 (cal/cm^3)^1/2

FC(Cl)C(F)(F)C(F)(F)Cl (stereo not shown) [1,3-dichloro-1,1,2,2,3-pentafluoropropane]
CS/CS113 [1, 4]: 9.2 | BP [2]: 52.7 C. | SP [3]: 7.31 (cal/cm^3)^1/2

FC1=C(OCC(F)(F)F)C(F)(F)C(F)(F)C(F)(F)C1(F)F [1-(2,2,2-trifluoroethoxy)nonafluoro-cyclohexene]
CS/CS113 [1, 4]: 70.2 | BP [2]: 113.7 C. | SP [3]: 7.51 (cal/cm^3)^1/2

C=C(OC(F)(F)Br)C(F)(F)F [1-(bromodifluoromethoxy)-1-(trifluoromethyl)ethene]
CS/CS113 [1, 4]: 27.7 | BP [2]: 66.3 C. | SP [3]: 7.67 (cal/cm^3)^1/2

FC(OC(F)(F)Br)=C(C(F)(F)F)C(F)(F)F [1-(bromodifluoromethoxy)-2-(trifluoromethyl)-1,3,3,3-tetrafluoro-1-propene]
CS/CS113 [1, 4]: 187.0 | BP [2]: 78.6 C. | SP [3]: 7.06 (cal/cm^3)^1/2

FC(F)(Br)OC=C(C(F)(F)F)C(F)(F)F [1-(bromodifluoromethoxy)-2-(trifluoromethyl)-3,3,3-trifluoro-1-propene]
CS/CS113 [1, 4]: 151.6 | BP [2]: 78.3 C. | SP [3]: 7.26 (cal/cm^3)^1/2

FC(Br)=C(C(F)(F)F)C(F)(F)F [1-bromo-1,3,3,3-tetrafluoro-2-(trifluoromethyl)-1-propene]
CS/CS113 [1, 4]: 71.9 | BP [2]: 51.9 C. | SP [3]: 6.78 (cal/cm^3)^1/2

FC(F)(F)c1cc(C(F)(F)F)c(Br)c(C(F)(F)F)c1 [1-bromo-2,4,6-tris(trifluoromethyl)benzene]
CS/CS113 [1, 4]: 113.0 | BP [2]: 173.4 C. | SP [3]: 7.76 (cal/cm^3)^1/2

FC(F)(F)C(=CBr)C(F)(F)F [1-bromo-2-(trifluoromethyl)-3,3,3-trifluoropropene]
CS/CS113 [1, 4]: 49.4 | BP [2]: 49.3 C. | SP [3]: 6.95 (cal/cm^3)^1/2

FC(F)OC(Cl)C(F)(F)F (stereo not shown) [1-chloro-2,2,2-trifluoroethyl difluoromethyl ether, reference compound]
CS/CS113 [1, 4]: 50.2 | BP [2]: 48.8 C. | SP [3]: 7.58 (cal/cm^3)^1/2

COC(F)=C(C(F)(F)F)C(F)(F)F [1-methoxy-2-trifluoromethyl-1,3,3,3-tetrafluoro-1-propene]
CS/CS113 [1, 4]: 154.6 | BP [2]: 44.5 C. | SP [3]: 7.09 (cal/cm^3)^1/2

FC1C(F)C(F)(F)C(F)(F)C(F)C1(F)F (stereo not shown) [1H,2H,4H-nonafluorocyclohexane]
CS/CS113 [1, 4]: 18.5 | BP [2]: 65.0 C. | SP [3]: 7.02 (cal/cm^3)^1/2

FC(F)=C(F)OC(F)(F)C(F)(F)Br [2-bromo-1,1,2,2-tetrafluoroethoxy-trifluoroethene]
CS/CS113 [1, 4]: 33.0 | BP [2]: 81.9 C. | SP [3]: 7.30 (cal/cm^3)^1/2

C=C(Br)C(F)(F)C(F)(F)F [2-bromo-3,3,4,4,4-pentafluorobutene]
CS/CS113 [1, 4]: 10.5 | BP [2]: 66.1 C. | SP [3]: 7.19 (cal/cm^3)^1/2

Fc1c(F)c(F)c(C(F)(F)F)c(Br)c1F [2-bromoheptafluorotoluene]
CS/CS113 [1, 4]: 21.5 | BP [2]: 151.3 C. | SP [3]: 7.64 (cal/cm^3)^1/2

FC(F)OC(F)(F)C(F)Cl (stereo not shown) [2-chloro-1,1,2-trifluoroethyl difluoromethyl ether, reference compound]
CS/CS113 [1]: 35.5 | BP [2]: 56.7 C. | SP [3]: 7.71 (cal/cm^3)^1/2

CCOC(F)(F)C(F)Cl (stereo not shown) [2-chloro-1,1,2-trifluoroethyl ethyl ether]
CS/CS113 [1, 4]: 15.0 | BP [2]: 88.9 C. | SP [3]: 7.50 (cal/cm^3)^1/2

FC(C(F)C(F)(F)C(F)(F)F)C(F)(F)F (stereo not shown) [2H,3H-decafluoropentane]
CS/CS113 [1, 4]: 91.5 | BP [2]: 55.0 C. | SP [3]: 6.84 (cal/cm^3)^1/2

OCC(C(F)(F)F)(C(F)(F)F)C(F)(F)F [3,3,3-trifluoro-bis-2,2-(trifluoromethyl)-1-propanol]
CS/CS113 [1, 4]: 40.7 | BP [2]: 86.1 C. | SP [3]: 6.81 (cal/cm^3)^1/2

FC(F)(F)C(F)(F)C(Cl)Cl [3,3-dichloro-1,1,1,2,2-pentafluoropropane]
CS/CS113 [1, 4]: 16.7 | BP [2]: 48.5 C. | SP [3]: 7.26 (cal/cm^3)^1/2

FC(F)=C(F)C(F)(Br)C(F)(F)F (stereo not shown) [3-bromo-1,1,2,3,4,4,4-heptafluorobutene]
CS/CS113 [1, 4]: 21.9 | BP [2]: 47.5 C. | SP [3]: 6.75 (cal/cm^3)^1/2

FC=CC(F)(F)Br [3-bromo-1,3,3-trifluoropropene]
CS/CS113 [1, 4]: 12.9 | BP [2]: 41.5 C. | SP [3]: 7.73 (cal/cm^3)^1/2

C=C(F)C(F)(F)Br [3-bromo-2,3,3-trifluoropropene]
CS/CS113 [1, 4]: 6.1 | BP [2]: 41.6 C. | SP [3]: 7.66 (cal/cm^3)^1/2

C=C(F)C(F)(Br)C(F)(F)F (stereo not shown) [3-bromo-2,3,4,4,4-pentafluorobutene]
CS/CS113 [1, 4]: 4.9 | BP [2]: 69.7 C. | SP [3]: 7.20 (cal/cm^3)^1/2

C=CC(F)(F)Br [3-bromo-3,3-difluoro-1-propene]
CS/CS113 [1, 4]: 5.9 | BP [2]: 42.0 C. | SP [3]: 7.89 (cal/cm^3)^1/2

C=C(C(F)(F)F)C(F)(F)Br [3-bromo-3,3-difluoro-2-(trifluoromethyl)-propene]
CS/CS113 [1, 4]: 15.0 | BP [2]: 49.7 C. | SP [3]: 7.24 (cal/cm^3)^1/2

Fc1c(F)c(Br)c(F)c(C(F)(F)F)c1F [3-bromoheptafluorotoluene]
CS/CS113 [1, 4]: 21.1 | BP [2]: 153.0 C. | SP [3]: 7.66 (cal/cm^3)^1/2

FC(=C(C(F)(F)F)C(F)(F)F)C(F)(F)Br [4-bromo-1,1,1,3,4,4-hexafluoro-2-(trifluoromethyl)-2-butene]
CS/CS113 [1, 4]: 103.2 | BP [2]: 68.1 C. | SP [3]: 6.51 (cal/cm^3)^1/2

FC(F)(Br)C=C(C(F)(F)F)C(F)(F)F [4-bromo-1,1,1,4,4-pentafluoro-2-(trifluoromethyl)-2-butene]
CS/CS113 [1, 4]: 105.5 | BP [2]: 61.0 C. | SP [3]: 6.74 (cal/cm^3)^1/2

FC(F)=C(F)C(F)(F)C(F)(F)Br [4-bromo-1,1,2,3,3,4,4-heptafluorobutene]
CS/CS113 [1, 4]: 23.4 | BP [2]: 51.5 C. | SP [3]: 6.78 (cal/cm^3)^1/2

FC(F)=C(F)C(F)(F)CBr [4-bromo-1,1,2,3,3-pentafluorobutene]
CS/CS113 [1, 4]: 25.3 | BP [2]: 80.4 C. | SP [3]: 7.79 (cal/cm^3)^1/2

C=C(F)C(F)(F)C(F)(F)Br [4-bromo-2,3,3,4,4-pentafluorobutene]
CS/CS113 [1, 4]: 6.0 | BP [2]: 69.2 C. | SP [3]: 7.21 (cal/cm^3)^1/2

C=CC(F)(F)C(F)(F)Br [4-bromo-3,3,4,4-tetrafluoro-1-butene]
CS/CS113 [1, 4]: 5.8 | BP [2]: 55.0 C. | SP [3]: 7.44 (cal/cm^3)^1/2

C=CC(F)(Cl)C(F)(F)Br (stereo not shown) [4-bromo-3-chloro-3,4,4-trifluoro-1-butene]
CS/CS113 [1, 4]: 0.8 | BP [2]: 99.7 C. | SP [3]: 7.76 (cal/cm^3)^1/2

Fc1c(F)c(C(F)(F)F)c(F)c(F)c1Br [4-bromoheptafluorotoluene]
CS/CS113 [1, 4]: 37.9 | BP [2]: 151.3 C. | SP [3]: 7.66 (cal/cm^3)^1/2

FC(F)(F)COCC(F)(F)Br [(2,2,2-trifluoroethyl)(2-bromo-2,2-difluoroethyl)ether]
CS/CS113 [1, 4]: 52.1 | BP [2]: 73.0 C. | SP [3]: 7.64 (cal/cm^3)^1/2

F/C(OC(F)(F)Br)=C(/F)C(F)(F)F [(E)-1-(bromodifluoromethoxy)-1,2,3,3,3-pentafluoro-1-propene]
CS/CS113 [1, 4]: 70.1 | BP [2]: 65.2 C. | SP [3]: 7.25 (cal/cm^3)^1/2

FC(F)(Cl)C(F)(Cl)Cl [CFC-113, 1,1,2-trichloro-1,2,2-trifluoroethane, reference compound]
BP [2]: 47.6 C.
